{"source": "patent US20050202467A1", "about": "“Novel spliced 5-HT1A receptors and methods, kits, and uses relating thereto” (Philadelphia Health and Education Corporation (d/b/a MCP …, priority 2003, published 2005)", "key": {"[1]": {"system": "neoplastic B and T cell lines", "assay": "inhibition of activation of neoplastic B and T cell lines", "format": "cell-based", "from_the_text": "Each of the tested compounds has a high affinity for the 5-HT1A receptor and was expected to inhibit the receptor's activity equally well."}, "primary T cells": {"system": "primary T cells", "assay": "response of mitogen (PHA) stimulated T-cells to selective 5-HT1A inhibitors", "format": "cell-based", "details": "mitogen (PHA) stimulated T cell cultures, at the concentrations tested (FIG. 2)"}}}
{"compound": "COc1ccccc1N1CCN(CCCCN2C(=O)c3ccccc3C2=O)CC1", "note": "[NAN-190]", "values": [{"measurement": "inhibition of the activation of neoplastic B and T cell lines", "setting": "[1]", "value": "reproducibly inhibited"}, {"measurement": "inhibition of the activation of primary T cells", "setting": "primary T cells", "value": "reproducibly inhibited"}]}
{"compound": "COc1ccccc1N1CCN(CCN(C(=O)c2ccc(F)cc2)c2ccccn2)CC1", "note": "[p-MPPF]", "values": [{"measurement": "inhibition of the activation of primary T cells", "setting": "primary T cells", "value": "little or no effects"}]}
{"compound": "WAY-100635", "values": [{"measurement": "inhibition of the activation of primary T cells", "setting": "primary T cells", "value": "little or no effects"}]}
